Patent US8309769B2, “Crystalline forms of 2-[2-chloro-4-methylsulfony1-3-(2,2,2-trifluoroethoxymethyl)benzoyl]cyclohexan-1,3-dione” (BASF SE, priority 2007, dated 2012)

Assay type: physicochemical
Procedure: The form in question or mixtures of different forms of tembotrione were suspended in a mixture of methanol with water (volume ratio methanol:water 1:9) at temperatures in the range from 10 to 30° C., and the temperature varied cyclically at a rate of 0.33 K min^−1.

With `CS(=O)(=O)c1ccc(C(=O)C2C(=O)CCCC2=O)c(Cl)c1COCC(F)(F)F` [mixture of forms A, B and C, 2-[2-chloro-4-methylsulfonyl-3-(2,2,2-trifluoro-ethoxymethyl)benzoyl]cyclohexan-1,3-dione] the “stability against phase change: modification found after 2 days” value was “converted into form A”.
With `CS(=O)(=O)c1ccc(C(=O)C2C(=O)CCCC2=O)c(Cl)c1COCC(F)(F)F` [form A, 2-[2-chloro-4-methylsulfonyl-3-(2,2,2-trifluoro-ethoxymethyl)benzoyl]cyclohexan-1,3-dione] the “stability against phase change: modification found after 8 days” value was “unchanged”.
For `CS(=O)(=O)c1ccc(C(=O)C2C(=O)CCCC2=O)c(Cl)c1COCC(F)(F)F` [form B, 2-[2-chloro-4-methylsulfonyl-3-(2,2,2-trifluoro-ethoxymethyl)benzoyl]cyclohexan-1,3-dione], the “stability against phase change: modification found after 3 days” value was “converted completely into modification C”.
